In the experiment the target is T1, nuclear factor-kappa B (NF-kB)-inducing kinase (NIK) (Homo sapiens, UniProt Q99558).
T1 construct: made in house; host or cells: baculovirus-infected insect cells
T1 sequence (Q99558 whole entry): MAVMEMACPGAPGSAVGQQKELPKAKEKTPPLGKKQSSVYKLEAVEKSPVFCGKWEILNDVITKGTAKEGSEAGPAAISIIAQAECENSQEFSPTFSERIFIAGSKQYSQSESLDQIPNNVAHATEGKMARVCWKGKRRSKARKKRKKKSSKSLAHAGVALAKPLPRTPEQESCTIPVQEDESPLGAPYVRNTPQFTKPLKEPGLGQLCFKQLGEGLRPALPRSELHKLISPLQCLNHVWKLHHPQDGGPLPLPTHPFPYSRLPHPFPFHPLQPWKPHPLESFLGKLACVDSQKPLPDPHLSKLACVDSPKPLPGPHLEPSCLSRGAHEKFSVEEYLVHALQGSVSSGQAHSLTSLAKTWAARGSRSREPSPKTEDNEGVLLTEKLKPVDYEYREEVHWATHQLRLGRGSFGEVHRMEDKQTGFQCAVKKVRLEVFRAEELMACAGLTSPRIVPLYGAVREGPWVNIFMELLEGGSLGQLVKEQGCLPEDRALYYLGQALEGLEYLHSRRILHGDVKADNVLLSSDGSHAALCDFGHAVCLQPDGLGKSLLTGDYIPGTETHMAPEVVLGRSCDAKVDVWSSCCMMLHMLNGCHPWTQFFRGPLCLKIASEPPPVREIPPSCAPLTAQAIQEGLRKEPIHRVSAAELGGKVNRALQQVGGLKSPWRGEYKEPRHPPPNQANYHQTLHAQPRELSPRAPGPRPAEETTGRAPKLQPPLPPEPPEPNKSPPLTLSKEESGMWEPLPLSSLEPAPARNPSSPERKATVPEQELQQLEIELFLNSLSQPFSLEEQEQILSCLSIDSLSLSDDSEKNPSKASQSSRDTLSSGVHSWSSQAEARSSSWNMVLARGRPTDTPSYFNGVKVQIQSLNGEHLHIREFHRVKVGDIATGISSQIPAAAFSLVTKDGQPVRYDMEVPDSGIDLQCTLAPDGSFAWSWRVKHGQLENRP
Description: NIK Enzyme Inhibition Assay (Transcreener ADP assay). In kind it is biochemical. To be noted: purified NIK 0.2-1 nM, 10 uM ATP, fluorescence polarization, Morrison's quadratic equation; read-out: inhibitory value (Ki) for NIK.
Regarding `N#Cc1ccc2cnn(-c3nc(N)ncc3[N+](=O)[O-])c2c1` [Example T1-8, 1-(2-amino-5-nitropyrimidin-4-yl)-1H-indazole-6-carbonitrile], the Ki worked out at 411 nM.
The result for `CC(C)(O)C#Cc1ccc2nc(C3CC3)n(-c3ccnc(N)n3)c2c1` [Example T1-17, 4-(1-(2-aminopyrimidin-4-yl)-2-cyclopropyl-1H-benzo[d]imidazol-6-yl)-2-methylbut-3-yn-2-ol] reads 2900 nM; that for `COc1ncccc1Nc1ncnc(-n2ncc3ccc(C#CC(C)(C)O)cc32)n1` [Example T1-24, 4-(1-(4-(2-methoxypyridin-3-ylamino)-1,3,5-triazin-2-yl)-1H-indazol-6-yl)-2-methylbut-3-yn-2-ol], 2100 nM; that for `CN(C)C(=O)c1nn(-c2ccnc(N)n2)c2cc(C#CC(C)(C)O)ccc12` [Example T1-30, 1-(2-aminopyrimidin-4-yl)-6-(3-hydroxy-3-methylbut-1-ynyl)-N,N-dimethyl-1H-indazole-3-carboxamide], 60 nM.
The result for `COc1ncccc1Nc1cc(-n2ncc3ccc(C#CC(C)(C)O)cc32)ncn1` [Example T1-31, 4-(1-(6-(2-methoxypyridin-3-ylamino)pyrimidin-4-yl)-1H-indazol-6-yl)-2-methylbut-3-yn-2-ol] reads 4600 nM.
With `CN(C)C(=O)c1nn(-c2ccnc(N)n2)c2cc(C#C[C@@](C)(O)c3nccs3)ccc12` [Example T1-46, (R)-1-(2-aminopyrimidin-4-yl)-6-(3-hydroxy-3-(thiazol-2-yl)but-1-ynyl)-N,N-dimethyl-1H-indazole-3-carboxamide], the Ki was determined as 0.16 nM.
The result for `C[C@@](O)(C#Cc1ccc2[nH]c(=O)n(-c3ccnc(N)n3)c2c1)c1nccs1` [Example T1-47, (R)-1-(2-aminopyrimidin-4-yl)-6-(3-hydroxy-3-(thiazol-2-yl)but-1-ynyl)-1H-benzo[d] imidazol-2(3H)-one] reads 0.11 nM.
The result for `Cc1nn(-c2ccnc(N)n2)c2cc(C#C[C@](C)(O)c3nccs3)ccc12` [Example T1-49, (S)-4-(1-(2-aminopyrimidin-4-yl)-3-methyl-1H-indazol-6-yl)-2-(thiazol-2-yl)but-3-yn-2-ol] reads 847 nM; that for `Cc1csc(C(C)(O)C#Cc2ccc3c(C)nn(-c4ccnc(N)n4)c3c2)n1` (stereo not drawn) [Example T1-51, 4-(1-(2-aminopyrimidin-4-yl)-3-methyl-1H-indazol-6-yl)-2-(4-methylthiazol-2-yl)but-3-yn-2-ol], 575 nM; that for `Cc1nn(-c2ccnc(N)n2)c2cc(C#CC3(O)CCN(C)CC3)ccc12` [Example T1-69, 4-((1-(2-aminopyrimidin-4-yl)-3-methyl-1H-indazol-6-yl)ethynyl)-1-methylpiperidin-4-ol], at least 5000 nM.
For the compound `CCOc1nc2ccc(C#CC(C)(O)c3cc(C)on3)cc2n1-c1ccnc(N)n1` (stereo not drawn) [Example T1-70, 4-(1-(2-aminopyrimidin-4-yl)-2-ethoxy-1H-benzo[d]imidazol-6-yl)-2-(5-methyl-isoxazol-3-yl)but-3-yn-2-ol], the inhibition constant Ki stood at 0.5 nM.
In the case of `Cc1cc([C@](C)(O)C#Cc2ccc3[nH]c(=O)n(-c4ccnc(N)n4)c3c2)no1` [Example T1.1-1, 3-(2-aminopyrimidin-4-yl)-[(3R)-3-hydroxy-3-(5-methyl-isoxazol-3-yl)but-1-ynyl]-1H-benzimidazol-2-one] it was 0.1 nM; in that of `Cc1nc2ccc(C#C[C@@](C)(O)c3nccs3)cc2n1-c1ncnc(N)n1` [Example T1.1-2, (2R)-4-[3-(4-amino-1,3,5-triazin-2-yl)-2-methyl-benzimidazol-5-yl]-2-thiazol-2-yl-but-3-yn-2-ol], 0.2 nM.
The result for `Cc1cc(C(C)(O)C#Cc2ccc3c(C(O)C(C)C)nn(-c4ccnc(N)n4)c3c2)no1` (stereo not drawn) [Example T1.1-3, 4-[1-(2-aminopyrimidin-4-yl)-3-(1-hydroxy-2-methyl-pro-pyl)indazol-6-yl]-2-(5-methyl-isoxazol-3-yl)but-3-yn-2-ol] reads 0.2 nM; that for `Cc1cc([C@](C)(O)C#Cc2ccc3c(CO)nn(-c4ccnc(N)n4)c3c2)no1` [Example T1.1-4, (2R)-4-[1-(2-aminopyrimidin-4-yl)-3-(hydroxymethyl)indazol-6-yl]-2-(5-methyl-isoxazol-3-yl)but-3-yn-2-ol], 0.22 nM.
In the case of `Cc1cc([C@](C)(O)C#Cc2ccc3nc(C)n(-c4ncnc(N)n4)c3c2)no1` [Example T1.1-5, (2R)-4-[3-(4-amino-1,3,5-triazin-2-yl)-2-methyl-benzimidazol-5-yl]-2-(5-methylisoxazol-3-yl)but-3-yn-2-ol], the inhibitory constant (Ki) was 0.32 nM.
The result for `Cc1cc(C(C)(O)C#Cc2ccc3c(C(C)(O)C4CC4)nn(-c4ccnc(N)n4)c3c2)no1` (stereo not drawn) [Example T1.1-6, 4-[1-(2-aminopyrimidin-4-yl)-3-(1-cyclopropyl-1-hydroxy-ethyl)indazol-6-yl]-2-(5-methylisoxazol-3-yl)but-3-yn-2-ol] reads 0.32 nM; that for `Cc1nc([C@](C)(O)C#Cc2ccc3c(C(C)(C)O)nn(-c4ccnc(N)n4)c3c2)no1` [Example T1.1-7, (2R)-4-[1-(2-aminopyrimidin-4-yl)-3-(1-hydroxy-1-methyl-ethyl)indazol-6-yl]-2-(5-methyl-1,2,4-oxadiazol-3-yl) but-3-yn-2-ol], 0.4 nM.
With `Cc1nc([C@](C)(O)C#Cc2ccc3c(CF)nn(-c4ccnc(N)n4)c3c2)no1` [Example T1.1-8, (2R)-4-[1-(2-aminopyrimidin-4-yl)-3-(fluoromethyl)indazol-6-yl]-2-(5-methyl-1,2,4-oxadiazol-3-yl)but-3-yn-2-ol], the Ki amounted to 0.5 nM.
Turning to `Cc1cc([C@](C)(O)C#Cc2ccc3c(C(C)(C)O)nn(-c4ccnc(N)n4)c3c2)no1` [Example T1.1-9, (2R)-4-[1-(2-aminopyrimidin-4-yl)-3-(1-hydroxy-1-methyl-ethyl)indazol-6-yl]-2-(5-methyl-isoxazol-3-yl)but-3-yn-2-ol], the Ki was 0.5 nM.
In the case of `Cc1cc([C@](C)(O)C#Cc2ccc3c(c2)n(-c2ccnc(N)n2)c(=O)n3C)no1` [Example T1.1-10, 3-(2-aminopyrimidin-4-yl)-5-[(3R)-3-hydroxy-3-(5-methylisoxazol-3-yl)but-1-ynyl]-1-methyl-benzimidazol-2-one] it was 0.5 nM; in that of `Cc1nn(-c2ccnc(N)n2)c2cc(C#CC(C)(O)c3c[nH]cn3)ccc12` (stereo not drawn) [Example T1.1-12, 4-[1-(2-aminopyrimidin-4-yl)-3-methyl-indazol-6-yl]-2-(1H-imidazol-4-yl)but-3-yn-2-ol], 0.6 nM.
With `Cc1cc(C(C)(O)C#Cc2ccc3nc(OCC(O)CO)n(-c4ccnc(N)n4)c3c2)no1` (stereo not drawn) [Example T1.1-13, 3-[1-(2-aminopyrimidin-4-yl)-6-[3-hydroxy-3-(5-methylisoxazol-3-yl)but-1-ynyl]benzimidazol-2-yl]oxypropane-1,2-diol], the Ki was found to be 0.6 nM.
The result for `Cc1cc([C@](C)(O)C#Cc2ccc3c(C(=O)N4CCOCC4)nn(-c4ccnc(N)n4)c3c2)no1` [Example T1.1-14, [1-(2-aminopyrimidin-4-yl)-6-[(3R)-3-hydroxy-3-(5-methylisoxazol-3-yl)but-1-ynyl]indazol-3-yl]-morpholino-methanone] reads 0.8 nM; that for `CNC(=O)c1nn(-c2ccnc(N)n2)c2cc(C#C[C@@](C)(O)c3cc(C)on3)ccc12` [Example T1.1-15, 1-(2-aminopyrimidin-4-yl)-6-[(3R)-3-hydroxy-3-(5-methylisoxazol-3-yl)but-1-ynyl]-N-methyl-indazole-3-carboxamide], 1 nM.
With `Cc1nn(-c2ccnc(N)n2)c2cc(C#CC3(O)CCN(C)C3=O)ccc12` (stereo not drawn) [Example T1.1-16, 3-[2-[1-(2-aminopyrimidin-4-yl)-3-methyl-indazol-6-yl]ethynyl]-3-hydroxy-1-methyl-pyrrolidin-2-one], the Ki turned out to be 1 nM.
In the case of `CCOc1nc2ccc(C#CC(C)(O)c3cc(CO)on3)cc2n1-c1ccnc(N)n1` (stereo not drawn) [Example T1.1-17, 4-[3-(2-aminopyrimidin-4-yl)-2-ethoxy-benzimidazol-5-yl]-2-[5-(hydroxymethyl)isoxdazol-3-yl]but-3-yn-2-ol] it was 1 nM; in that of `Cc1nn(-c2ccnc(N)n2)c2cc(C#CC(C)(O)c3cc(CF)on3)ccc12` (stereo not drawn) [Example T1.1-19, 4-[1-(2-aminopyrimidin-4-yl)-3-methyl-indazol-6-yl]-2-[5-(fluoromethyl)isoxazol-3-yl]but-3-yn-2-ol], 1 nM; in that of `Cc1cc([C@](C)(O)C#Cc2ccc3c(C(N)=O)nn(-c4ccnc(N)n4)c3c2)no1` [Example T1.1-20, 1-(2-aminopyrimidin-4-yl)-6-[(3R)-3-hydroxy-3-(5-methyl-isoxazol-3-yl)but-1-ynyl] indazole-3-carboxamide], 1 nM.
The result for `CC(O)(C#Cc1ccc2[nH]c(=O)n(-c3ccnc(N)n3)c2c1)c1cc(CO)on1` (stereo not drawn) [Example T1.1-21, 3-(2-aminopyrimidin-4-yl)-5-[3-hydroxy-3-[5-(hydroxymethyl)isoxazol-3-yl]but-1-ynyl]-1H-benzimidazol-2-one] reads 1 nM; that for `Cn1c(=O)n(-c2ccnc(N)n2)c2cc(C#CC3(O)CCn4ccnc43)ccc21` (stereo not drawn) [Example T1.1-22, 3-(2-aminopyrimidin-4-yl)-5-[2-(7-hydroxy-5,6-dihydropyrrolo[1,2-a]imidazol-7-yl)ethynyl]-1-methyl-benzimidazol-2-one], 1 nM.
The result for `Cc1nc([C@](C)(O)C#Cc2ccc3c(C(=O)N4CC(O)C4)nn(-c4nc(N)ncc4Cl)c3c2)no1` [Example T1.1-23, [1-(2-amino-5-chloro-pyrimidin-4-yl)-6-[(3R)-3-hydroxy-3-(5-methyl-1,2,4-oxadiazol-3-yl)but-1-ynyl]indazol-3-yl]-(3-hydroxy-azetidin-1-yl)methanone] reads 1 nM.
With `Cc1nc([C@](C)(O)C#Cc2ccc3c(C(=O)N4CCC(F)CC4)nn(-c4ccnc(N)n4)c3c2)no1` [Example T1.1-24, [1-(2-aminopyrimidin-4-yl)-6-[(3R)-3-hydroxy-3-(5-methyl-1,2,4-oxadiazol-3-yl)but-1-ynyl]indazol-3-yl]-(4-fluoro-1-piperidyl)methanone], the Ki is 1 nM.
